Patent US7732468B2, “3-aryl-6-aryl-[ 1,2,4]triazolo[3,4-b][1,3,4]thiadiazoles and related compounds as activators of caspases and inducers of apoptosis and the use thereof” (Cytovia, Inc., priority 2006, dated 2010)

Columns and labels:
Type in all cases: cell-based
[1] = system: Human breast cancer cell lines MDAMB435; experiment: Inhibition of cell proliferation (GI50) in MDAMB435 cells; conditions: MDA MB 435 cells, 48 h incubation
Method: (§1) Human breast cancer cell lines T-47D, MX1 and MDAMB435, human colon carcinoma cell line HCT116, human leukemia cell line K562, human lymphoma cell line Raji, human B cell lymphoblastoid cell line Ramos, and human Burkitt's lymphoma cell line Namalwa were grown and harvested as in Example 14. An aliquot of […] of cells (4.4×10^4 cells/mL) was added to a well of a 96-well microtiter plate containing 5 μL of a 10% DMSO in RPMI-1640 media solution containing 10 nM to 100 μM of 6-(3,4-dimethoxyphenyl)-3-(2-methoxyphenyl)-[1,2,4]triazolo[3,4-b][1,3,4]thiadiazole (1 nM to 10 μM final). An aliquot of 45 μL of cells was added to a well of a 96-well microtiter plate containing 5 μL of a 10% DMSO in RPMI-1640 media solution without compound as the control sample for maximal cell proliferation (LMax). The samples were mixed by agitation and then incubated at 37° C. for 48 h in a 5% CO2-95% humidity incubator. After incubation, the samples were removed from the incubator and 25 μL of CellTiter-Glo™ reagent (Promega) was added. The samples were mixed by agitation and incubated at room temperature for 10-15 min. Plates were then read using a luminescent plate reader (Model SPECTRAfluor Plus, Tecan) to give Ltest values.
(§2) The samples were mixed by agitation and then incubated at 37° C. for 0.5 h in a 5% CO2-95% humidity incubator. After incubation, the samples were removed from the incubator and 25 μL of CellTiter-Glo™ reagent (Promega) was added. The samples were mixed by agitation and incubated at […] 10-15 min at room temperature in a 5% CO2-95% humidity incubator. Fluorescence was read as above, (LStart) defining luminescence for initial cell number used as baseline in GI50 determinations.
(§3) GI50 (dose for 50% inhibition of cell proliferation) is the concentration where [(LTest−LStart)/(LMax−LStart)]=0.5.

[2] = system: Human breast cancer cell lines MX1; experiment: Inhibition of cell proliferation (GI50) in MX1 cells; conditions: 48 h incubation
Method: as §1, §2, §3

[3] = system: human B cell lymphoblastoid cell line Ramos; experiment: Caspase cascade activation in Ramos cells; conditions: 48 h incubation, read-out: caspase potency EC50 RAMOS
Method: (§4) Human breast cancer cell lines T-47D, human hepatocellular carcinoma cell line SNU398, human colon carcinoma cell line HCT116, human cancer cell line H11299, human Burkitt's lymphoma cell line Namalwa, human lymphoma cell line Raji, and human B cell lymphoblastoid cell line Ramos were grown according to media component mixtures designated by American Type Culture Collection+10% FCS (Invitrogen Corporation), in a 5% CO2-95% humidity incubator at 37° C. T-47D and H1299 cells were maintained at a cell density between 50 and 80% confluency at a cell density of 0.1 to 0.6×10^6 cells/mL. Cells were harvested at 600×g and resuspended at 0.65×10^6 cells/mL into appropriate media+10% FCS. An aliquot of 22.5 μL of cells was added to a well of a 384-well microtiter plate containing 2.5 μL of a 10% DMSO in RPMI-1640 media solution containing 0.16 to 100 μM of 6-(3,4-dimethoxyphenyl)-3-(2-methoxyphenyl)-[1,2,4]triazolo[3,4-b][1,3,4]thiadiazole or other test compound (0.016 to 10 μM final). An aliquot of 22.5 μL of cells was added to a well of a 384-well microtiter plate containing 2.5 μL of a 10% DMSO in RPMI-1640 media solution without test compound as the control sample. The samples were mixed by agitation and then incubated at 37° C. for 48 h in a 5% CO2-95% humidity incubator. After incubation, the samples were removed from the incubator and 25 μL of a solution containing 14 μM of N-(Ac-DEVD)-N′-ethoxycarbonyl-R110 (SEQ ID No.:1) fluorogenic substrate (Cytovia, Inc.; WO99/18856), 20% sucrose (Sigma), 20 mM DTT (Sigma), 200 mM NaCl (Sigma), 40 mM Na PIPES buffer pH 7.2 (Sigma), and 500 μg/mL lysolecithin (Calbiochem) was added. The samples were mixed by agitation and incubated at room temperature. Using a fluorescent plate reader (Model SPECTRAfluor Plus, Tecan), an initial reading (T=0) was made approximately 1-2 min after addition of the substrate solution, employing excitation at 485 nm and emission at 530 nm, to determine the background fluorescence of the control sample. After the 3 h incubation, the samples were read for fluorescence as above (T=3 h).
(§5) The Relative Fluorescence Unit values (RFU) were used to calculate the sample readings as follows: RFU(T=3h)−Control RFU(T=0)=Net RFU(T=3h)
(§6) The activity of caspase cascade activation was determined by the ratio of the net RFU value for 6-(3,4-dimethoxyphenyl)-3-(2-methoxyphenyl)-[1,2,4]triazolo[3,4-b][1,3,4]thiadiazole (Example I) or other test compound to that of control samples. The EC50 (nM) was determined by a sigmoidal dose-response calculation (Prism 3.0, GraphPad Software Inc.).

[4] = system: human Burkitt's lymphoma cell line Namalwa; experiment: Caspase cascade activation in Namalwa cells; conditions: Burkitts lymphoma cell, 48 h incubation, read-out: caspase potency EC50 Namalwa
Method: as §4, §5, §6

[5] = system: human lymphoma cell line Raji; experiment: Caspase cascade activation in Raji cells; conditions: RAJ1 cells, 48 h incubation, read-out: caspase potency EC50 RAJ1
Method: as §4, §5, §6

[6] = system: human hepatocellular carcinoma cell line SNU398; experiment: Caspase cascade activation in SNU398 cells; conditions: SNU-398, 48 h incubation, read-out: caspase potency EC50 SNU398
Method: as §4, §5, §6

[7] = system: human colon carcinoma cell line HCT116; experiment: Caspase cascade activation in HCT116 cells; conditions: HCT-116, 48 h incubation, read-out: caspase potency EC50 HCT116
Method: as §4, §5, §6

[8] = system: Human breast cancer cell lines T-47D; experiment: Caspase cascade activation (Ac-DEVD-R110 fluorogenic substrate) in T-47D cells; conditions: T47D cells, 48 h incubation, read-out: caspase potency EC50 T47D
Method: as §4, §5, §6

[9] = system: Human breast cancer cell lines T-47D; experiment: Inhibition of cell proliferation (GI50, CellTiter-Glo) in T-47D cells; conditions: T47D cells, 48 h incubation
Method: as §1, §2, §3

[10] = system: human cancer cell line H1299; experiment: Caspase cascade activation in H1299 cells; conditions: NCI-H1299, 48 h incubation, read-out: caspase potency EC50 H1299
Method: as §4, §5, §6

[11] = system: human colon carcinoma cell line HCT116; experiment: Inhibition of cell proliferation (GI50) in HCT116 cells; conditions: HCT 116 cells, 48 h incubation
Method: as §1, §2, §3

[12] = system: human Burkitt's lymphoma cell line Namalwa; experiment: Inhibition of cell proliferation (GI50) in Namalwa cells; conditions: Burkitts lymphoma cell, 48 h incubation
Method: as §1, §2, §3

SMILES: CCc1cc(-c2nnc3sc(-c4ccc(C)cc4)nn23)n(C)n1 [A, 3-(3-Ethyl-1-methyl-1H-pyrazol-5-yl)-6-p-tolyl-[1,2,4]triazolo[3,4-b][1,3,4]thiadiazole]
- GI50 [1]: 253 nM
- GI50 [2]: 4080 nM
- EC50 [3]: > 10000 nM
- EC50 [4]: > 10000 nM
- EC50 [5]: > 10000 nM
- EC50 [6]: 1860 nM
- EC50 [7]: 5450 nM
- EC50 [8]: 3680 nM
- GI50 [9]: 2730 nM
- EC50 [10]: 3160 nM

SMILES: CCc1cc(-c2nnc3sc(-c4ccc(OC)cc4)nn23)n(C)n1 [C, 3-(3-Ethyl-1-methyl-1H-pyrazol-5-yl)-6-(4-methoxyphenyl)-[1,2,4]triazolo[3,4-b][1,3,4]thiadiazole]
- GI50 [2]: 9000 nM
- EC50 [3]: 566 nM
- EC50 [4]: 574 nM
- EC50 [5]: > 10000 nM
- EC50 [6]: 1720 nM
- EC50 [7]: 4570 nM
- EC50 [8]: 4030 nM
- GI50 [9]: 900 nM

SMILES: COc1ccccc1-c1nnc2sc(-c3ccc(C)c(N)c3)nn12 [Entry 5, 6-(3-Amino-4-methylphenyl)-3-(2-methoxyphenyl)-[1,2,4]triazolo[3,4-b][1,3,4]thiadiazole]
- GI50 [11]: 107 nM
- EC50 [4]: 18 nM
- GI50 [12]: 21 nM
- EC50 [6]: 33 nM
- EC50 [7]: 40 nM
- EC50 [8]: 121 nM
- GI50 [9]: 22 nM

SMILES: COc1ccc(-c2nn3c(-c4ccccc4OC)nnc3s2)cc1N [Entry 7, 6-(3-Amino-4-methoxyphenyl)-3-(2-methoxyphenyl)-[1,2,4]triazolo[3,4-b][1,3,4]thiadiazole]
- GI50 [11]: 83 nM
- EC50 [4]: 18 nM
- GI50 [12]: 14 nM
- EC50 [6]: 19 nM
- EC50 [7]: 21 nM
- EC50 [8]: 284 nM
- GI50 [9]: 100 nM

SMILES: CCN(CC)c1ccc(-c2nn3c(-c4n[nH]c5c4CCC5)nnc3s2)cc1 [Entry K1, 6-(4-Diethylaminophenyl)-3-(1,4,5,6-tetrahydrocyclopenta[c]pyrazol-3-yl)-[1,2,4]triazolo[3,4-b][1,3,4]thiadiazole]
- EC50 [3]: 585 nM
- GI50 [11]: 497 nM
- EC50 [4]: 580 nM
- EC50 [5]: 617 nM
- GI50 [12]: 138 nM
- EC50 [7]: 1020 nM
- EC50 [8]: 636 nM
- GI50 [9]: 167 nM

SMILES: Cc1ccc(-c2nn3c(-c4n[nH]c5c4CCC5)nnc3s2)cc1 [Entry M1, 6-(4-Methylphenyl)-3-(1,4,5,6-tetrahydrocyclopenta[c]pyrazol-3-yl)-[1,2,4]triazolo[3,4-b][1,3,4]thiadiazole]
- EC50 [3]: 40 nM
- GI50 [11]: 89 nM
- EC50 [4]: 39 nM
- EC50 [5]: 81 nM
- GI50 [12]: 16 nM
- EC50 [6]: 34 nM
- EC50 [7]: 67 nM
- EC50 [8]: 395 nM
- GI50 [9]: 200 nM
